Test results published in patent publication US20240209004A1, “BORIC ACID DERIVATIVE ACTING AS Beta-LACTAMASE INHIBITOR” (TUOJIE BIOTECH (SHANGHAI) CO., LTD., priority 2021, published 2024).
In brackets after ≈: the same amount, converted by molar mass. Where two headings read alike, the source gives them in different places.

Columns and labels:
Assay type in all cases: cell-based
[1] = system: Escherichia coli ARLG-2829 (Urine); test: MIC of β-lactamase inhibitors in the presence of antibiotic (Test Example 1); details: in the presence of Cefepime (8 ug/mL)
Experimental: (§1) • 1) The antibiotics cefepime and biapenem (purchased from MCE Inc.).
(§2) The biosafety cabinet was sterilized with ultraviolet light for 30 min. Glycerol tubes were taken out of a −80° C. freezer, and streaks were gently formed in the glycerol tubes using inoculating loops. Bacteria were inoculated onto MHIIA solid plates. The plates were incubated overnight in a 37° C. incubator.
(§3) 30 μL of compound stock solution was added to column 1 of a 96-well v-bottom plate, and DMSO was added to columns 2-10. Subsequently, 15 μL was transferred from column 1 to column 2 using a pipette and well mixed gently, and then 15 μL of solution was transferred from column 2 to column 3: the serial dilution process proceeded to column 10 (200×β-lactamase inhibitor working solutions were prepared). The two antibiotics were diluted with corresponding solvents to form 1.6 mg/mL solutions.
(§4) 1 μL of 200×B-lactamase inhibitor solution and 1 μL of 1.6 mg/mL antibiotic were added to a new 96-well round-bottom plate. The plate that had been incubated overnight was taken out of the incubator, and several monoclones were picked into normal saline using an inoculating loop. The bacterial solution was adjusted to a concentration of about 1.0×10^8CFU/mL and diluted 200-fold with medium, and 198 μL of the resulting bacterial solution was added to the test plate. The test plate was incubated in a 37° C.incubator for 18-24 h. The 96-well plate that had been incubated for 20 h was taken out of the incubator. The concentration that prevented visible bacterial growth was defined as the minimum inhibitory concentration.

[2] = system: Klebsiella pneumoniae ATCC BAA-1705; test: as above
Experimental: as §1, §2, §3, §4

[3] = system: Klebsiella pneumoniae ATCC BAA-2472; test: as above
Experimental: as §1, §2, §3, §4

[4] = system: cefepime-resistant Acinetobacter baumannii; test: MIC in combination with cefepime for drug-resistant bacteria (Test Example 2); details: Acinetobacter baumannii, with CPM 8 μg/mL, read-out: concentration for achieving a bacteriostatic effect where the CPM MIC is fixed at 8 μg/mL
Experimental: as §2
(§5) 30 μL of compound stock solution was added to column 1 of a 96-well v-bottom plate, and DMSO was added to columns 2-10. Subsequently, 15 μL was transferred from column 1 to column 2 using a pipette and well mixed gently, and then 15 μL of solution was transferred from column 2 to column 3; the serial dilution process proceeded to column 10 (200×β-lactamase inhibitor working solutions were prepared). The antibiotic was diluted with a corresponding solvent to form a 1.6 mg/mL solution.

[5] = system: cefepime-resistant Escherichia coli; test: as above; details: for MIC: Escherichia coli, with CPM 8 μg/mL, read-out: concentration for achieving a bacteriostatic effect where the CPM MIC is fixed at 8 μg/mL
Experimental: as §2, §5

[6] = system: cefepime-resistant Klebsiella pneumoniae; test: as above; details: for MIC: Klebsiella pneumoniae, with CPM 8 μg/mL, read-out: concentration for achieving a bacteriostatic effect where the CPM MIC is fixed at 8 μg/mL
Experimental: as §2, §5

[7] = system: cefepime-resistant Pseudomonas aeruginosa; test: as above; details: read-out: concentration for achieving a bacteriostatic effect where the CPM MIC is fixed at 8 μg/mL
Experimental: as §2, §5

[8] = system: cefepime-resistant Klebsiella pneumoniae expressing different types of β-lactamases; test: microbe, parasite or virus in culture; details: for MIC: Klebsiella pneumoniae; for MIC, Cefepime + compound (8 ug/ml): inhibitor at 8 ug/ml
Experimental: as §2
30 μL of compound stock solution was added to column 1 of a 96-well v-bottom plate, and DMSO was added to columns 2-10. Subsequently, 15 μL was transferred from column 1 to column 2 using a pipette and well mixed gently, and then 15 μL of solution was transferred from column 2 to column 3: the serial dilution process proceeded to column 10 (200×β-lactamase inhibitor working solutions were prepared). The antibiotic was diluted with a corresponding solvent to form a 1.6 mg/mL solution.

[9] = in the presence of Biapenem (8 ug/mL)
[10] = in the presence of Cefepime (8 ug/mL)
[11] = summary in words of Test Example 2

## O=C(O)c1c(F)ccc2c1OB(O)[C@@H]1C[C@H]21 [QPX-7728]
[1]
  Minimum inhibitory concentration: 1 µg/mL
[2]; [9]
  Minimum inhibitory concentration: ≤0.03125 µg/mL
[2]; [10]
  Minimum inhibitory concentration: 0.25 µg/mL
[3]; [9]
  Minimum inhibitory concentration: 8 µg/mL
[3]; [10]
  Minimum inhibitory concentration: 16 µg/mL
[4]; strain FDA-CDC AR-BANK#0033
  MIC: > 16 µg/mL
[4]; strain FDA-CDC AR-BANK#0035
  MIC: > 16 µg/mL
[4]; strain FDA-CDC AR-BANK#0078
  MIC: 16 µg/mL
[5]; strain FDA-CDC AR-BANK#0055
  MIC: 0.5 µg/mL
[5]; strain FDA-CDC AR-BANK#0114
  MIC: ≤ 0.0156 µg/mL
[5]; strain FDA-CDC AR-BANK#0370
  MIC: 0.125 µg/mL
[5]; strain FDA-CDC AR-BANK#0371
  MIC: ≤ 0.0156 µg/mL
[5]; [11]
  restoring to cefepime antibacterial activity against cefepime-resistant Escherichia coli: significantly restore to cefepime antibacterial activity
[6]; strain FDA-CDC AR-BANK#0003
  MIC: 0.0312 µg/mL
[6]; strain FDA-CDC AR-BANK#0076
  MIC: 0.25 µg/mL
[6]; strain FDA-CDC AR-BANK#0080
  MIC: 0.5 µg/mL
[6]; strain FDA-CDC AR-BANK#0126
  MIC: ≤ 0.0156 µg/mL
[6]; strain FDA-CDC AR-BANK#0158
  MIC: 0.5 µg/mL
[6]; [11]
  restoring to cefepime antibacterial activity against cefepime-resistant Klebsiella pneumoniae: significantly restore to cefepime antibacterial activity
[7]; strain FDA-CDC AR-BANK#0246, with CPM 8 μg/mL
  MIC: > 16 µg/mL
[7]; strain FDA-CDC AR-BANK#0439, with CPM 8 μg/mL
  MIC: > 16 µg/mL
[7]; strain FDA-CDC AR-BANK#0441, with CPM 8 μg/mL
  MIC: 2 µg/mL
[7]; strain FDA-CDC AR-BANK#0444, with CPM 8 μg/mL
  MIC: 4 µg/mL
[8]; ATCCBAA1705, read-out: MIC, single substance (1-1-Na, QPX7728, CPM), strain ATCC BAA-1705, KPC-2, TEM, SHV, Class A
  MIC: 32 µg/mL (≈ 144 µM)
[8]; ATCCBAA1898, read-out: MIC, single substance (1-1-Na, QPX7728, CPM), strain ATCC BAA-1898, KPC-2, Class A
  MIC: 32 µg/mL (≈ 144 µM)
[8]; ATCCBAA1899, read-out: MIC, single substance (1-1-Na, QPX7728, CPM), strain ATCC BAA-1899, KPC-2, Class A
  MIC: 32 µg/mL (≈ 144 µM)
[8]; ATCCBAA2343, read-out: MIC, single substance (1-1-Na, QPX7728, CPM), strain ATCC BAA-2343, KPC, Class A
  MIC: 32 µg/mL (≈ 144 µM)
[8]; ATCCBAA2470, read-out: MIC, single substance (1-1-Na, QPX7728, CPM), strain ATCC BAA-2470, NDM-1, Class B
  MIC: 16 µg/mL (≈ 72.1 µM)
[8]; read-out: MIC, single substance (1-1-Na, QPX7728, CPM), strain ARLG-1127 (Urine), KPC, KPC-3, TEM, TEM-1, Class A
  MIC: 64 µg/mL (≈ 288 µM)
[8]; read-out: MIC, single substance (1-1-Na, QPX7728, CPM), strain ARLG-1195, CTM-1 group, SHV, NDM, Class A, B
  MIC: 32 µg/mL (≈ 144 µM)
[8]; read-out: MIC, single substance (1-1-Na, QPX7728, CPM), strain ARLG-1196, CTM-1 group, SHV, NDM, TEM, Class A, B
  MIC: 32 µg/mL (≈ 144 µM)
[8]; strain ARLG-1127 (Urine), KPC, KPC-3, TEM, TEM-1, Class A
  MIC, Cefepime + compound (8 ug/ml): ≤0.125 µg/mL
[8]; strain ARLG-1195, CTM-1 group, SHV, NDM, Class A, B
  MIC, Cefepime + compound (8 ug/ml): ≤0.125 µg/mL
[8]; strain ARLG-1196, CTM-1 group, SHV, NDM, TEM, Class A, B
  MIC, Cefepime + compound (8 ug/ml): ≤0.125 µg/mL
[8]; strain ATCC BAA-1705, KPC-2, TEM, SHV, Class A
  MIC, Cefepime + compound (8 ug/ml): ≤0.125 µg/mL
[8]; strain ATCC BAA-1898, KPC-2, Class A
  MIC, Cefepime + compound (8 ug/ml): <0.125 µg/mL
[8]; strain ATCC BAA-1899, KPC-2, Class A
  MIC, Cefepime + compound (8 ug/ml): <0.125 µg/mL
[8]; strain ATCC BAA-2343, KPC, Class A
  MIC, Cefepime + compound (8 ug/ml): ≤0.125 µg/mL
[8]; strain ATCC BAA-2470, NDM-1, Class B
  MIC, Cefepime + compound (8 ug/ml): ≤0.125 µg/mL
[8]; summary in words of Test Example 3 (sentence runs over b277-b278)
  restore to cefepime antibacterial activity against cefepime-resistant Klebsiella pneumoniae: significantly
